{"source": "patent US9456589B2", "about": "“Elasmobranch-repelling compounds and methods of use” (priority 2005, dated 2016)", "key": {"[1]": {"system": "Caribbean reef sharks", "assay": "Cloud dispersion assay (cloud - co2)", "type": "in vivo, C. perezii", "settings": "for Comments (effect on shark population): cloud, 500 mL", "from_the_text": "Another bioassay used to observe a flight response in sharks is a cloud dispersion assay on competitively feeding population of sharks. This assay is referred to as a “Cloud Dispersion Assay” or “Cloud Assay.” A pressurized fluid delivery system was designed to deliver repellent into large feeding populations of sharks. The repellent is released as a subsurface cloud, which follows the current. A 1 L plastic container containing the test chemical repellent solution is pressurized to approximately 20 psig with a battery compressor or hand pump. A globe valve is used to hold back the fluid. The fluid is delivered to the end of a long PVC pole using a Teflon tubing. This allows the operator to place the tip of the pole well into a population of feeding sharks. By actuating the small globe valve, a cloud of the chemical solution is released quickly and reliably into the feeding population. Controls are established using FD&C Red 40 dye and seawater, uncolored seawater, and air. These controls establish that sharks are not afraid to approach the delivery pole, nor are sharks deterred from feeding by the jet of control fluid or air.\nSyringe 3/5/10, Hd Syringe and Micropipette assays were carried out as described in Examples 1 and 2."}, "[2]": {"system": "lemon sharks", "assay": "Tonic immobility, Hd Syringe Assay", "type": "in vivo, N. brevirostris", "settings": "lemon sharks", "experimental": "(§1) One bioassay used to observe and measure flight response is the tonic immobility test. Tonic immobility is a state of paralysis that typically occurs when a shark is subject to inversion of its body along the longitudinal axis. This state is called “tonic,” and the shark can remain in this state for up to 15 minutes thereby allowing researchers to observe effects of chemical repellents. The “tonic” state of the shark is first established by releasing seawater in proximity to the “tonic” shark with the same delivery instrument and at the same distance as a “test” repellent compound will be released. Some controls are released with a high flow rate (30 mL/sec) in order to establish that sharks are not awakened by a jet of fluid over their noses. Once behavioral controls are established, a compound or composition that may have a repelling effect is delivered to the shark. If the compound or composition engenders a flight response, the shark will awaken from the tonic state and rapidly attempt to flee the delivered repellent. Using this tonic immobility bioassay researches can quantify the strength of a repellent effect.\n(§2) Lemon, nurse, blacktip and tiger sharks were placed in tonic immobility by inverting the shark's body along its longitudinal axis. […] The “tonic” state of each shark was first established by releasing a control of seawater in proximity to the shark with the same delivery instrument and at the same distance as the chemical repellent would later be delivered. In certain controls, sea water was released with a high flow rate (30 mL/sec) in order to establish that the sharks would not be awakened by a jet of fluid over their noses.\nOnce behavioral controls were established, the chemical repellent was delivered to the shark using the Hd Syringe Assay method, the Syringe 3/5/10 Assay method, the Bite Assay method or the Micropipette Assay method. […]"}, "[3]": {"system": "nurse sharks", "assay": "Tonic immobility, Hd Syringe Assay", "type": "in vivo, C. cirratum", "settings": "juvenile nurse shark", "experimental": "as §1\nLemon, nurse, blacktip and tiger sharks were placed in tonic immobility by inverting the shark's body along its longitudinal axis. […]"}, "[4]": {"system": "blacktip sharks", "assay": "Tonic immobility, Syringe 3/5/10 Assay", "type": "in vivo, C. limbatus", "experimental": "as §1\n(§3) In the tonic immobility studies disclosed herein, several different methods were employed for delivery of repelling compounds. A first method for delivery of chemical repellent in tonic immobility studies employed a “Syringe 3/5/10 Assay” method. The “Syringe 3/5/10 Assay” method is so named because a test repellent is delivered to a shark from a distance of about “3” inches with a bolus of about “5” mL with a response to the test repellent considered positive if the shark reacts with a change in behavior within less than about “10” seconds from the time of delivery.\n(§4) The “3/5/10 Syringe Assay” as employed herein delivered a dose of 5-6 mL of a test chemical repellent from a syringe fixed with a needle having a gauge of about 22 from a distance at least 3 inches in front of a shark. Because the test chemical repellent was delivered at a distance from the shark's nares and mouth, a cloud of test chemical repellent was dispersed over the shark within the water column. The dispersed test repellent was subject to water current direction, dispersion and dilution. As a result, a flight response within 10 seconds was considered a positive repellency response. […] Time from delivery to response is related to the size of the bolus delivered from the syringe, distance of the shark from the syringe and water current.\nas §2\n(§5) Once behavioral controls were established, the chemical repellent was delivered to the shark using the Hd Syringe Assay method, the Syringe 3/5/10 Assay method, the Bite Assay method or the Micropipette Assay method. […] If tonic immobility was terminated, the positive response was denoted as “Y.” If tonic immobility was not terminated but a behavior change within tonic immobility was noted, such as the opening of the mouth or a cough, the response was denoted as an “R” for reduced response. If no behavior change was observed, the negative response was denoted “N.”\nIn Syringe 3/5/10 Assays, 5-6 mL of 3-methylbutanal was delivered at least 3 inches in front of the shark's mouth. A cloud of the repellent dispersed over the shark within the water column. […] As noted above, because the dispersion of the chemical repellent upon delivery is affected by volume of repellent, water current, and other factors, the time between delivery and response was not correlatable with the potency of the repellent. […]"}, "[5]": {"system": "sharks (lemon, nurse, tiger pooled)", "assay": "Tonic immobility, Hd Syringe Assay, summary over species", "type": "in vivo", "settings": "species pooled", "experimental": "as §1\nIn Hd-Syringe Assays, the 3-methylbutanal was delivered to the shark's mouth and nares using a 3 mL hypodermic syringe fitted with a 22 gauge needle. The needle was held within 3 inches of the shark's mouth and the test repellent was slowly released from the syringe with a very fine plume in the water column. Any response was denoted. If a response occurred during a measurable time after delivery of the test chemical, the time between delivery and response was noted. If a response occurred immediately or the response occurred before a measurable time could be established, no time to response was noted."}, "[6]": {"system": "nurse sharks", "assay": "Tonic immobility, Syringe 3/5/10 Assay", "type": "in vivo, C. cirratum", "settings": "Table 24; nurse shark; syringe 3/5/10 delivery; 6 ml; mouth"}, "[7]": {"system": "juvenile lemon and nurse sharks", "assay": "Tonic immobility, Micropipette Assay, summary over species", "type": "in vivo", "settings": "for Micropipette Y (termination of tonic immobility), trials of trials: juvenile lemon and nurse sharks, oral dose", "experimental": "as §1\n(§6) A fourth method of delivery was called the “Micropipette Assay” method of delivery. In this method, a very small dose (fraction of a mL) of a test substance was delivered directly into a shark's mouth. […] A response, such as a cough or other notable action of the shark, was usually noted when effective gustatory repellents were delivered directly into a shark's mouth while in tonic immobility.\n(§7) The Micropipette Assay method has not proven to be a particularly effective method of assaying for a flight response in elasmobranchs. The Micropipette Assay method is, nevertheless, an excellent method for specifying that a gustatory response has occurred. It is effective for specifying a gustatory response because the micropipette delivery method allows direct delivery of an entire bolus of test substance into the mouth of the shark being tested.\nAn oral dose of no more than 400 microliters was then delivered by micropipette into the mouth of a juvenile nurse shark. Tonic immobility was terminated. For each derivative of butyric acid and each naturally occurring acid listed in Table 9, a first micropipette assay was performed on a juvenile lemon shark with no more than 100 microliters of test acid in an oral dose. A second micropipette assay was then performed on a juvenile nurse shark with no more than 400 microliters of test acid in an oral dose. In each test, tonic immobility was terminated.\nIn a first set of studies on the effectiveness of carboxylic acids as elasmobranch repellents, each tested substance was subjected to the following protocol. […] An oral dose of no more than 400 microliters was then delivered by micropipette into the mouth of a juvenile nurse shark. Tonic immobility was terminated. […] The data evidences the gustatory repelling activity of carboxylic acids."}, "[8]": {"system": "nurse sharks", "assay": "Tonic immobility, Micropipette Assay", "type": "in vivo, C. cirratum", "experimental": "as §1, §6\nas §7, with “tested. […]” for “tested.”"}, "[9]": {"system": "sharks (lemon, nurse, blacktip, tiger, blacknose pooled)", "assay": "Tonic immobility, Syringe 3/5/10 Assay, summary over species", "type": "in vivo", "experimental": "as §1, §3, §4\nIn Syringe 3/5/10 Assays, 5-6 mL of 3-methylbutanal was delivered at least 3 inches in front of the shark's mouth. A cloud of the repellent dispersed over the shark within the water column. […] As noted above, because the dispersion of the chemical repellent upon delivery is affected by volume of repellent, water current, and other factors, the time between delivery and response was not correlatable with the potency of the repellent."}, "[10]": {"system": "juvenile sharks", "assay": "Initial tonic immobility assays, mouth delivery by micropipette or syringe", "type": "in vivo", "settings": "introduced to the mouth using a micropipette or syringe"}, "[11]": {"system": "lemon sharks", "assay": "Tonic immobility, Micropipette Assay", "type": "in vivo, N. brevirostris", "settings": "juvenile lemon shark, micropipette", "experimental": "as §1, §6, §7\nUsing a microliter syringe or microliter pipette, a bolus of test chemical can be directed precisely into one of the shark's nares, or its mouth. […] Olfactory repellents will terminate tonic immobility almost immediately when injected into a nare of the shark.\nas §2, §5\nFurther because the Micropipette assays were often done serially on the same set of sharks, second and third doses of the repellent over time would be expected to evoke less of a reaction. Nevertheless, the small doses delivered to the shark in the Micropipette assay provide important data on whether a compound is a gustatory stimulant because the small dose may be delivered directly into the mouth of the shark. This eliminates any olfactory response that might be acting in concert with a gustatory response to terminate tonic immobility."}, "[12]": {"settings": "listed as crotonic acid solution"}}, "note": "Where two headings read alike, the source gives them in different places.", "data": [{"smiles": "Cc1cccnc1N", "note": "[2-amino-3-picoline]", "values": [{"measurement": "T?", "setting": "[1]; cloud - co2, 500 mL", "value": "Y"}, {"measurement": "Comments (effect on shark population)", "setting": "[1]", "value": "population decreased"}, {"measurement": "Comments (effect on shark population)", "setting": "[1]; listed as 2-amino-3-picoline 95% cut to 10% w/w with desalinated water", "value": "population decrease"}]}, {"smiles": "Cc1c(N)c(=O)n(-c2ccccc2)n1C", "note": "[4-aminoantipyrine]", "values": [{"measurement": "Hd Syringe assays terminating tonic immobility", "setting": "[2]", "value": "all assays terminated tonic immobility"}, {"measurement": "Hd Syringe assays terminating tonic immobility", "setting": "[3]", "value": "terminated"}, {"measurement": "Syringe 3/5/10 assays with no response", "setting": "[4]; blacktip sharks", "value": "no response"}, {"measurement": "Hd-Syringe Y (termination of tonic immobility), trials of trials", "setting": "[5]", "value": "terminated tonic immobility in all tests"}, {"measurement": "Hd-Syringe Y (termination of tonic immobility), trials of trials", "setting": "[5]; listed as 4-amino-antipyrine", "value": "five of five"}, {"measurement": "Hd-Syringe Y (termination of tonic immobility), trials of trials", "setting": "[5]; listed as 4-amino-antipyrine (metapirazone)", "value": "5/5"}]}, {"smiles": "O=C(O)CC(O)(CC(=O)O)C(=O)O", "note": "[Citric acid 50% w/w, Citric acid]", "values": [{"measurement": "Hd Syringe assays terminating tonic immobility", "setting": "[2]", "value": "four of four"}, {"measurement": "T? (termination of tonic immobility)", "setting": "[6]", "value": "R"}, {"measurement": "T? (termination of tonic immobility)", "setting": "[4]; Table 24, blacktip shark, syringe 3/5/10 delivery, 6 ml, mouth longline", "value": "Y"}, {"measurement": "Hd-Syringe Y (termination of tonic immobility), trials of trials", "setting": "[5]", "value": "4/4"}, {"measurement": "Micropipette Y (termination of tonic immobility), trials of trials", "setting": "[7]", "value": "2/2"}]}, {"smiles": "c1ccncc1", "note": "[Pyridine, pyridine]", "values": [{"measurement": "Micropipette assay outcome", "setting": "[8]; nurse shark, about 500 microliters into the mouth", "value": "did not evoke a response"}, {"measurement": "Syringe 3/5/10 R (behavior response within tonic immobility), trials of trials", "setting": "[9]", "value": "1/4"}, {"measurement": "Syringe 3/5/10 Y (termination of tonic immobility), trials of trials", "setting": "[9]", "value": "3/4"}, {"measurement": "Syringe 3/5/10 R (behavior response within tonic immobility), trials of trials", "setting": "[9]; listed as pyridine", "value": "one of four"}, {"measurement": "Syringe 3/5/10 Y (termination of tonic immobility), trials of trials", "setting": "[9]; listed as pyridine", "value": "three of four"}, {"measurement": "result of initial tonic immobility assays", "setting": "[10]", "value": "terminated tonic immobility"}]}, {"smiles": "CC=CC(=O)O", "note": "[crotonic acid solution (2-butenoic acid), 2-butenoic acid]", "values": [{"measurement": "T? (termination of tonic immobility)", "setting": "[6]", "value": "Y and R"}, {"measurement": "Syringe 3/5/10 N (no response), trials of trials", "setting": "[9]", "value": "2/7"}, {"measurement": "Syringe 3/5/10 R (behavior response within tonic immobility), trials of trials", "setting": "[9]", "value": "1/7"}, {"measurement": "Syringe 3/5/10 Y (termination of tonic immobility), trials of trials", "setting": "[9]", "value": "4/7"}, {"measurement": "Syringe 3/5/10 N (no response), trials of trials", "setting": "[9]; [12]", "value": "two of the seven"}, {"measurement": "Syringe 3/5/10 R (behavior response within tonic immobility), trials of trials", "setting": "[9]; [12]", "value": "one of the seven"}, {"measurement": "Syringe 3/5/10 Y (termination of tonic immobility), trials of trials", "setting": "[9]; [12]", "value": "four of the seven"}, {"measurement": "Micropipette Y (termination of tonic immobility), trials of trials", "setting": "[7]", "value": "2/2"}, {"measurement": "screening result", "setting": "[7]; lemon and nurse sharks", "value": "shark repelling compounds"}]}, {"smiles": "CCCC(=O)O", "note": "[n-Butyric Acid, n-butyric acid]", "values": [{"measurement": "oral dose that terminated tonic immobility", "setting": "[11]", "value": "no more than 100 microliters"}, {"measurement": "oral dose that terminated tonic immobility", "setting": "[8]; juvenile nurse shark, micropipette", "value": "no more than 400 microliters"}, {"measurement": "Micropipette Y (termination of tonic immobility), trials of trials", "setting": "[7]", "value": "2/2"}, {"measurement": "Micropipette Y (termination of tonic immobility), trials of trials", "setting": "[7]; listed as butyric acid", "value": "termination of tonic immobility"}, {"measurement": "mouth dose at which tonic immobility was terminated", "setting": "[7]; juvenile lemon or nurse sharks", "value": 100, "unit": "µL"}]}]}
